Measurements reported in patent US8741932B2, “Imidazopyridine derivatives” (Piramal Enterprises Limited, priority 2009, dated 2014).

Columns and labels:
A549 = test: Cytotoxicity assay (propidium iodide), A549; format: cell-based; settings: Homo sapiens; A549 (C1a, lung); 48 hours
Procedure: (§4) Cells from cell lines as mentioned in the table given below were seeded at a density of 3000 cells/well in a white opaque 96-well plate. Following incubation at 37° C./5% CO2 for a period of 18-24 hours, the cells were treated with various concentrations (stock solution was prepared in DMSO and subsequent dilutions were made in media as per ATCC guidelines) of the representative compounds of present invention (refer table 3) for a period of 48 hours. At the end of treatment, the spent culture medium was discarded, the cells were washed with 1×PBS and 200 μl of 7 μg/ml propidium iodide was added to each well. The plates were frozen at −70° C. for at least 24 hours. For analysis, the plates were brought to RT, allowed to thaw and were read in PolarStar fluorimeter with the fluorescence setting. The percentage of viable cells in the non treated set of wells was considered to be 100 and the percentage viability following treatment was calculated accordingly. IC50 values were calculated from graphs plotted using these percentages.

H460 = test: Cytotoxicity assay (propidium iodide), H460; format: cell-based; settings: Homo sapiens, NCI-H460; H460 (C1b, lung); 48 hours
A2780 = test: Cytotoxicity assay (propidium iodide), A2780; format: cell-based; settings: Homo sapiens; A2780 (C3a, ovarian); 48 hours
Procedure: as §4

OVCAR 3 = test: Cytotoxicity assay (propidium iodide), OVCAR 3; format: cell-based; settings: Homo sapiens; OVCAR 3 (C3c, ovarian); 48 hours
Procedure: as §4

HCT116 = test: Cytotoxicity assay (propidium iodide), HCT116; format: cell-based; settings: Homo sapiens, HCT-116; HCT116 (C4b, colon); 48 hours
Procedure: as §4

PANC 1 = test: Cytotoxicity assay (propidium iodide), PANC 1; format: cell-based; settings: Homo sapiens; PANC 1 (C5a, pancreatic); 48 hours
Procedure: as §4

CAPAN1 = test: Cytotoxicity assay (propidium iodide), CAPAN1; format: cell-based; settings: Homo sapiens, CAPAN-1; CAPAN1 (C5b, pancreatic); 48 hours
Procedure: as §4

STAT3 = STAT3 bioassay (Hela Stat3-luc, luciferase); format: cell-based; settings: Homo sapiens, Oncostatin M induction
Procedure: Cells were seeded (Hela Stat3-luc, ATCC P/N 30-2002) in a white 96 well plate (Nunc cat.no.136101) at a density of 20,000cells/well in 179 μl volume per well (DMEM from Sigma containing 10% FCS). The plate was incubated for 24 hours at 37° C./5% CO2. The cells (wells in triplicates) were then treated with 1 μl/well of 200× stock of the desired compound concentration prepared in 100% DMSO. Curcumin was used as a standard or positive control, added 10 μg/ml in triplicate. DMSO was used as medium control (1 μl/well added in triplicates). The plate was incubated at 37° C./5% CO2 for 1 hour. 20 μl/well Oncostatin M (Oncostatin M, Human, Recombinant, E. coli, Cat.No. 496260, 10 μg from Calbiochem) was added to treated wells, induction control (in triplicate) (1000 ng/ml stock prepared in serum free medium to get final concentration 100 ng/ml). The plate was then incubated for 7-8 hours at 37° C./5% CO2 for induction. A typical assay would consist of triplicate of medium control, triplicate of induction control, triplicate of positive/standard control and test compounds at desired concentration in triplicates. For termination Luciferase assay protocol was followed where the culture medium was removed from all the wells.
200 μl well of PBS was added to remove traces of medium and compound. The PBS was discarded. 40 μl/well of 1× lysis buffer was added to all the wells. The plate was incubated at RT for 20 minutes with intermittent shaking. 100 μl/well of LAB reagent was added to all the wells in dark. {LAB reagent for 1 plate=8 ml Luciferase assay buffer (LAB)+1 ml Coenzyme A (Sigma cat no. C3019) (2.1 mg/ml stock in LAB)+530 μL of ATP (Sigma cat.no.A2383) (5.85 mg/ml stock in LAB)+1 ml luciferin reagent (Promega cat no.245355) (2 mg/ml stock in LAB, protect from light)}.
The luminescence was immediately read on polar star. The values were expressed as percentage inhibition, in terms of treated values to that STAT3 (induction control). IC50 values were calculated from graphs using these percentages.

IL-6 [1] = test: Human monocyte assay, LPS-stimulated IL-6; format: cell-based; settings: Monocyte; human monocytes, 1 μg/ml LPS, 5 hours
Summary of the method: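 Adherent human PBMC-derived monocytes (2×10^4/well) were cultured 48 h, preincubated 30 min with compound or 0.5% DMSO, then stimulated with 1 μg/ml E. coli LPS for 5 h at 37° C. TNF-α and IL-6 in supernatants were measured by ELISA.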

TNF-α [2] = test: Human monocyte assay, LPS-stimulated TNF-α; format: cell-based; settings: human monocytes, 1 μg/ml LPS, 5 hours
Procedure: The assay was designed as in the reference, Physiol.
Peripheral blood mononuclear cells (hPBMC) were harvested from human blood and suspended in RPMI 1640 culture medium containing 10% FCS, 100 U/mL penicillin and […] streptomycin (assay medium). Monocytes in the hPBMCs were counted using a Coulter Counter following which the cells were resuspended at 2×10^5 monocytes/mL. A cell suspension containing 2×10^4 monocytes was aliquoted per well of a 96-well plate. Subsequently, the hPBMCs were incubated for 4-5 hours at 37° C., 5% CO2 (During the incubation, the monocytes adhered to the bottom of 96-well plastic culture plate). Following the incubation, the non-adherent lymphocytes were washed with assay medium and the adherent monocytes re-fed with assay medium. After a 48-hour incubation period (37° C., 5% CO2), monocytes were pretreated with various concentrations of representative compounds of present invention (refer to table 6 and 7) (prepared in DMSO) or vehicle (0.5% DMSO) for 30 minutes and stimulated with 1 μg/ml LPS (Escherchia coli 0111:B4, Sigma Chemical Co., St. Louis, Mo.). The incubation was continued for 5 hours at 37° C., 5% CO2. Supernatants were harvested, assayed for IL-6 and TNF-α by ELISA as described by the manufacturer (BD Biosciences, USA). Dexamethasone (10 μM) was used as standard for this assay. […] Biological results for both IL-6 and TNFα are indicated in Table 6 and Table 7 respectively.

PC3 = test: Cytotoxicity assay (propidium iodide), PC3; settings: Homo sapiens, PC-3, 48 h, read-out: IC50 cytotoxicity
IL-6 [3] = test: Synovial tissue assay, IL-6; format: cell-based; settings: Homo sapiens; synovial tissue cells from rheumatoid arthritis patients, 16 hours
Procedure: (§1) The assay was designed as in the reference, Lancet, 2(8657), 244-7, Jul.
(§2) Stock Solution: Compounds of the present invention were dissolved in DMSO to obtain a stock solution of 20 mM.
(§3) Synovial tissue was obtained from rheumatoid arthritis patients undergoing knee replacement surgery. The tissue was minced into small pieces and digested in RPMI medium containing 100 U/ml penicillin-G, 100 μg/ml streptomycin, 50 ng/ml amphotericin B (GIBCO; USA), 1.33 mg/ml collagenase Type I (Worthington Biochemical Corporation, New Jersey), 0.5 μg/ml DNAse Type I (Sigma Aldrich; St. Louis, Mo.) and 8.33 U/ml heparin (Biological E. Limited, India) for 3 hours at 37° C., 5% CO2. The digested tissue was filtered through a membrane (mesh size 70 micron; Sigma Aldrich). Subsequently, the cells were washed 3 times and resuspended in complete medium (RPMI supplemented with 5% FBS and 5% human serum-AB+) at a concentration of 1×10^6 cells/ml. All cell washes in this assay were performed using Rosewall Park Memorial Institute (RPMI)-1640 medium (JRH; Australia). For the experiment, 100 μl of cell suspension was added to the wells of a 96-well culture plate. Following cell plating, 100 μl of the culture medium and 1 μl of various concentrations (0.01, 0.03, 0.1, 0.3, 1, 3, 10, 30 and 100 μM) of the compounds of present invention dissolved in DMSO were added to the cells. The final concentration of DMSO was adjusted to 0.5%. For experimental purposes, 1 μl of […] concentrated solution of the compounds of present invention were dissolved in 200 μl cell suspension to achieve a final concentration of 0.01, 0.03, 0.1, 0.3, 1, 3, 10, 30 and 100 μM. The vehicle (0.5% DMSO) was used as control. 10 μM dexamethasone (Sigma Aldrich) or 1 μM 7-hydroxyfluorinide (7HF) were used as standards for the experiments. The plates were incubated for 16 hours at 37° C., 5% CO2. Subsequently, the supernatants were harvested and stored at −70° C. The amounts of TNF-α, IL-6 and interleukin-8 (IL-8) in the supernatants were assayed using OptiEIA ELISA sets, (BD BioSciences Pharmingen). The protocol followed was as per manufacturers instructions. […] The cytotoxicity of test compounds in synovial cells was assessed by MTS assay. Absorbance was measured at 490 nm. Percent cytotoxicity was calculated by the equation: % Cytotoxicity=(A−B)/A×100 where, A is the absorbance of cells treated with DMSO alone and B is the absorbance of cells treated with the test article.

TNF-α [4] = test: Synovial tissue assay, TNF-α; format: cell-based; settings: Homo sapiens; synovial tissue cells from rheumatoid arthritis patients, 16 hours
Procedure: as §1, §2, §3

IL-8 = test: Synovial tissue assay, IL-8; format: cell-based; settings: Homo sapiens; synovial tissue cells from rheumatoid arthritis patients, 16 hours
Procedure: as §1, §2, §3

PI3Kα kinase = molecular target: T1, PI3Kα kinase (Homo sapiens, UniProt P42336); test: Kinase assay (PI3Kα); format: biochemical; settings: read-out: IC50 (μM) for PI3K inhibition
T1 construct: purchased Millipore, USA
T1 sequence (P42336 whole entry): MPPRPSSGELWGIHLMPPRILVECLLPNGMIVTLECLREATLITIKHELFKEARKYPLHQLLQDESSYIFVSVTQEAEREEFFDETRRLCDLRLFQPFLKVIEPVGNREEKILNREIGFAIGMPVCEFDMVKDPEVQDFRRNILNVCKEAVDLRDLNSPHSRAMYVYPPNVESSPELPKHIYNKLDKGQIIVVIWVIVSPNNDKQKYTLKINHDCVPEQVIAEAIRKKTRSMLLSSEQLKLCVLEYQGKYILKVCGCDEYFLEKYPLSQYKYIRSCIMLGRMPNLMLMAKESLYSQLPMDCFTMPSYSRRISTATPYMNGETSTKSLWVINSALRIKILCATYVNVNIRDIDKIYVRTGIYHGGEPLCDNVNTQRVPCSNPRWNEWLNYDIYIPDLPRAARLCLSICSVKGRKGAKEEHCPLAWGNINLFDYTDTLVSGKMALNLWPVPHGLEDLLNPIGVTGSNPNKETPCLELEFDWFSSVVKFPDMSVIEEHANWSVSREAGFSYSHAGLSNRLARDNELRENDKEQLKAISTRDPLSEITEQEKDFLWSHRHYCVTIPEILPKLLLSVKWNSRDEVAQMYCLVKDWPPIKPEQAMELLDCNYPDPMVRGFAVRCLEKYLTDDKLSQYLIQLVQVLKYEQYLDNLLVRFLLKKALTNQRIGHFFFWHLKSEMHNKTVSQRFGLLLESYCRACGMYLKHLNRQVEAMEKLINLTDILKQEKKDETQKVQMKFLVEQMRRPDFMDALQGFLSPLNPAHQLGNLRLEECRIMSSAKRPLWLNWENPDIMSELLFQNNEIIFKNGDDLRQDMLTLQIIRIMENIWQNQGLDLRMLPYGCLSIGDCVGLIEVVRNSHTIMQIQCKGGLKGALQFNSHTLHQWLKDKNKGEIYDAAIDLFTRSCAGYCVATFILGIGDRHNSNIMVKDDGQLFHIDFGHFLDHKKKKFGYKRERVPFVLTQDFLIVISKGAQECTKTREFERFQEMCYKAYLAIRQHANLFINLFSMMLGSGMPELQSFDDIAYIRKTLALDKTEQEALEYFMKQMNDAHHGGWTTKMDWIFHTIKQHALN
T1 sequence (P27986 whole entry partner): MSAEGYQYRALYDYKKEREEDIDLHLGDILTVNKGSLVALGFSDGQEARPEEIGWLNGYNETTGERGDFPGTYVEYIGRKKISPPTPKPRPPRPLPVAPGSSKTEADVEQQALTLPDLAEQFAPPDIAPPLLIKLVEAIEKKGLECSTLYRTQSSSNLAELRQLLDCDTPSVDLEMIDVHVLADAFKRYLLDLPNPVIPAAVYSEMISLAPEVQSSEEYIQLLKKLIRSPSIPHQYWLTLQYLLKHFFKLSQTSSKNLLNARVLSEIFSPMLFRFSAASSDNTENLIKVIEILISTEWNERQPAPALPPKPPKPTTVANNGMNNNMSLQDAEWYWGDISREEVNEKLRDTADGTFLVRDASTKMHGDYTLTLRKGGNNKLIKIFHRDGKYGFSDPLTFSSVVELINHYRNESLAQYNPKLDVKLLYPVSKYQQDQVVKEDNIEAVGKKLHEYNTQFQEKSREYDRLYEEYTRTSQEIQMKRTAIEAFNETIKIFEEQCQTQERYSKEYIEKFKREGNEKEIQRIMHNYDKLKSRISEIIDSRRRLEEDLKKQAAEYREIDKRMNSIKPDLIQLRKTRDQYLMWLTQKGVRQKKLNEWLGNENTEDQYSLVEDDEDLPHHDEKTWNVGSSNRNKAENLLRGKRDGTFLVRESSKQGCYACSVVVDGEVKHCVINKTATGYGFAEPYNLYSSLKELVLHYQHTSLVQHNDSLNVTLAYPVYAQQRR
Procedure: The kinase reaction was carried out in a 25 μL volume in a 1.5 mL microcentrifuge tube. The reaction mixture consisted of kinase buffer (10 mM Hepes, pH 7.5, 50 mM MgCl2), 20 ng PI3Kα kinase (Millipore, USA), 12.5 μg phosphotidylinositol (PI), 10 μM ATP and 1 μCi ^32γ P […]. […] The reactions were incubated at 30° C. for 20 minutes and were terminated by adding 1:1 mixture of MeOH and CHCl3. The tube contents were mixed on a vortex mixer and centrifuged at 10000 rpm for 2 minutes. 10 μL of the organic (lower) phase was spotted on to a TLC plate (silica, mobile phase: n-propanol and 2 M glacial acetic acid in 65:35 ratio). The plates were dried and exposed to an X-ray film. The bands appearing as a result of ^32γ P incorporation in PI were quantitated using the Quantityl)ne (BioRad, USA) densitometry program. PI-103 (Calbiochem, USA) was used as a standard.

MDA MB 468 = test: Cytotoxicity assay (propidium iodide), MDA MB 468; format: cell-based; settings: Homo sapiens; MDA MB 468 (C6b, breast); 48 hours
Procedure: as §4

MCF7 = test: Cytotoxicity assay (propidium iodide), MCF7; format: cell-based; settings: Homo sapiens; MCF7 (C6c, breast); 48 hours
Procedure: as §4

G361 = test: Cytotoxicity assay (propidium iodide), G361; format: cell-based; settings: G-361; G361 (C9a, human melanoma); 48 hours
Procedure: as §4

IC50 (STAT3) [nM] | IC50 (IL-6 [1]) [µM] | IC50 (TNF-α [2]) [nM] | IC50 (IL-6 [3]) [µM] | IC50 (TNF-α [4]) [µM] | IC50 (IL-8) [µM] | IC50 (PI3Kα kinase) [µM] | SMILES | IC50 (A549) [nM] | IC50 (H460) [nM] | IC50 (A2780) [nM] | IC50 (OVCAR 3) [nM] | IC50 (HCT116) [nM] | IC50 (PANC 1) [nM] | IC50 (CAPAN1) [nM] | IC50 (PC3) [nM] | IC50 (MDA MB 468) [nM] | IC50 (MCF7) [nM] | IC50 (G361) [nM]
 | 0.001 to 5 | 1 to 1000 | 0.3 to 3 | 0.3 to 3 | 0.3 to 3 |  | Cc1ccc(F)c(S(=O)(=O)N(C)N=Cc2cnc3ccc(-c4cccnc4)cn23)c1 [Example 19, 2-Fluoro-N, 5-dimethyl-N′-((6-(pyridine-3-yl)imidazo[1,2-a]pyridine-3-yl)methylene) benzenesulfonohydrazide] |  |  |  |  |  |  |  |  |  |  | 
 | ≥ 5 |  |  |  |  |  | CN(N=Cc1cnc2ccc(-c3cccnc3)cn12)S(=O)(=O)c1cccc2cccnc12 [Example 30, N-methyl-N′-((6-(pyridine-3-yl)imidazo[1,2-a]pyridine-3-yl)methylene) quinoline-8-sulfonohydrazide] | > 5000 | > 5000 |  |  |  |  |  | > 5000 | > 5000 | > 5000 | > 5000
 | 0.001 to 5 |  |  |  |  |  | Cc1ccc([N+](=O)[O-])cc1S(=O)(=O)N(C)N=Cc1cnc2ccc(-c3cnc4ccccc4c3)cn12 [Example 99, N, 2-Dimethyl-5-nitro-N′-((6-(quinolin-3-yl)imidazo[1,2-a]pyridine-3-yl)methylene)benzenesulfonohydrazide] | 10 to 5000 | 10 to 5000 | 10 to 5000 | 10 to 5000 | 10 to 5000 |  |  | 10 to 5000 |  |  | 

The next lines start with the compound.

SMILES | IC50 (STAT3) [nM] | IC50 (IL-6 [1]) [µM] | IC50 (TNF-α [2]) [nM] | IC50 (IL-6 [3]) [µM] | IC50 (TNF-α [4]) [µM] | IC50 (IL-8) [µM] | IC50 (PI3Kα kinase) [µM] | IC50 (A549) [nM] | IC50 (H460) [nM] | IC50 (A2780) [nM] | IC50 (OVCAR 3) [nM] | IC50 (HCT116) [nM] | IC50 (PANC 1) [nM] | IC50 (CAPAN1) [nM] | IC50 (PC3) [nM] | IC50 (MDA MB 468) [nM] | IC50 (MCF7) [nM] | IC50 (G361) [nM]
CN(N=Cc1cnc2ccc(-c3cccnc3)cn12)S(=O)(=O)c1ccccc1 [Example 1, N-methyl-N′-((6-(pyridin-3-yl)imidazo[1,2-a]pyridin-3-yl)methylene)benzenesulfonohydrazide] | 5000 to 10000 | 0.001 to 5 | 1 to 1000 |  |  |  |  | 10 to 5000 | 10 to 5000 | 10 to 5000 | 10 to 5000 | 10 to 5000 | 10 to 5000 | 10 to 5000 | 10 to 5000 |  |  | 
CN(N=Cc1cnc2ccc(-c3cccnc3)cn12)S(=O)(=O)c1ccccc1F [Example 4, 2-Fluoro-N-methyl-N′-((6-(pyridine-3-yl)imidazo[1,2-a]pyridine-3-yl)methylene)benzenesulfonohydrazide] | 100 to 5000 | 0.001 to 5 | 1 to 1000 | 0.01 to 0.3 | 0.01 to 0.3 | 0.3 to 3 |  |  |  |  |  |  |  |  |  |  |  | 
CN(/N=C/c1cnc2ccc(-c3cccnc3)cn12)S(=O)(=O)c1cccc(C#N)c1 [Example 10, (E)-3-cyano-N-methyl-N′-((6-(pyridin-3-yl)imidazo[1,2-a]pyridin-3-yl)methylene)benzenesulfonohydrazide] | 100 to 5000 | 0.001 to 5 | 1 to 1000 |  |  |  |  | 10 to 5000 | 10 to 5000 | 10 to 5000 | 10 to 5000 | 10 to 5000 |  |  | 10 to 5000 |  |  | 
CN(N=Cc1cnc2ccc(-c3cccnc3)cn12)S(=O)(=O)c1ccc(F)cc1F [Example 13, 2,4-Difluoro-N-methyl-N′-((6-(pyridine-3-yl)imidazo[1,2-a]pyridine-3-yl)methylene) benzenesulfonohydrazide] | 5000 to 10000 | 0.001 to 5 | 1 to 1000 | 0.01 to 0.3 | 0.01 to 0.3 | 0.3 to 3 |  |  |  |  |  |  |  |  |  |  |  | 
CN(N=Cc1cnc2ccc(-c3cccnc3)cn12)S(=O)(=O)c1c(F)cccc1F [Example 14, 2,6-Difluoro-N-methyl-N′-((6-(pyridine-3-yl)imidazo[1,2-a]pyridine-3-yl)methylene) benzenesulfonohydrazide] | 5000 to 10000 | 0.001 to 5 | 1 to 1000 | 0.01 to 0.3 | 0.01 to 0.3 | 0.3 to 3 | 0.01 to 0.5 |  |  |  |  |  |  |  |  |  |  | 
